This note sets out measurements from patent publication US20250236789A1, “SECOND NEAR-INFRARED ORGANIC FLUORESCENT PROBE, PREPARATION METHOD AND USE THEREOF” (INNER MONGOLIA UNIVERSITY, priority 2024, published 2025).

Data set [1] is described as follows: Emission spectrum test in aqueous solution under excitation of white light. Particulars: 10 μmol·L^−1, white light excitation. In kind it is physicochemical. Here is the method: (3) Emission spectrum test of fluorescent probe coated nanoparticles: The emission spectra of HY6CT-NPs, FY6CT-NPs and CY6CT-NPs in aqueous solution were tested with steady-state transient fluorescence spectrometer, at a test concentration of 10 μmol·L^−1.

A short description of data set [2]: NIR-II fluorescence imaging of aqueous solutions in PE tubes under excitation of white light. The following applies: aqueous solution, 10 μmol·L^−1. In kind it is physicochemical. The text has this: Using NIR-II small animal imager, the PE tubes filled with the same concentration of nano-imaging probes were imaged at a test concentration of 10 μmol·L^−1.

Take `CC1(C)C(/C=C/C=C/C=C/C=C2\N(CCCCS(=O)(=O)[O-])c3ccc4ccccc4c3C2(C)C)=[N+](CCCCS(=O)(=O)[O-])c2ccc3ccccc3c21.[Na+]` [ICG]: the “emission spectrum under white light (in words)” value in data set [1] was “can hardly be detected”. The “NIR-II fluorescence signal under excitation of white light (in words)” value in data set [2] was “could not detect fluorescence signals”.
